In US6919441B2, “Polyamide-oligonucleotide derivatives, their preparation and use” (Aventis Pharma Deutschland GmbH, priority 1995, dated 2005):
In the oligonucleotide strings, read from the 5' end, every base follows the letter of its sugar. An asterisk marks phosphorothioate; unmarked linkages are phosphodiester. Other units and linkages are bracketed, terminal groups are in braces. A string of capitals states the bases alone. d = 2'-deoxy (DNA)

Key:
complementary DNA = experiment: Melting temperature (TM) with complementary DNA; assay type: binding; conditions: 10 mM HEPES, 140 mM NaCl, pH 7.5
Method: (§1) The melting temperatures are determined using an HP 8452A diode array spectrophotometer, an HP 89090A Peltier element and the HP temperature control software Rev.B5.1 (from Hewlett Packard). Measurements are carried out in 0.5° C./min steps in 10 mM HEPES and 140 mM NaCl (pH 7.5) as buffer. The oligomer concentration is 0.5 to 1 OD260 per ml.

[1] = tested on: complementary RNA (T = U); experiment: Melting temperature (TM) with complementary RNA; assay type: binding; conditions: ap; 3′-TGT AGT ACC AGC-5′ (T = U); 10 mM HEPES, 140 mM NaCl, pH 7.5
Method: as §1

[2] = tested on: Ha-ras protein expression; experiment: Anti-Ha-ras activity, Western blot in RS485 cells; assay type: cell-based
Method: RS485 cells (40-60% confluency) were either treated with the PNS_DNA chimera alone or transfected with PNA-DNA chimera using Lipofectin™ Reagent and the protocol from Life Technologies. Briefly, varying concentrations of oligomers were diluted in 100 μl of serum-free medium. In a separate tube Lipofectin was added to serum-free medium at a concentration of 7 μl/100 μl. After 30 minutes at room temperature, 100 μl of Lipofectin solution was mixed with 100 μl of ODN solution, incubated for an additional 15 minutes at room temperature, and mixed with 800 μl of serum-free medium. Cells were washed two times with serum-free medium, and the total solution (1 ml) containing the ODN-Lipofectin complex was overlayed onto the cells. After 6 hours, 1 ml of fresh medium containing 8 mM L-glutamine and 20% calf serum was added, and the cells were incubated for an additional 38 hours. Treated cells were washed with PBS, harvested with trypsin, and cellular proteins were extracted. The ras Protein was then determined by Western Blot Analysis. Total cellular protein was prepared by lysing cells in RIPA buffer with freshly added inhibitors (PMSF, aprotinin, sodium orthovanadate) and homogenizing through 21-gauge needles according to the protocol provided by Santa Cruz Biotechnology, Inc. The extracts were cleaned by centrifugation at 15,000 xg for 20 min at 4° C. and the protein concentration of the supernatant was determined. 40 μg of protein was size fractionated in 5-12.5% PAGE and electroblotted onto a nitrocellulose membrane. The membrane was incubated with primary antibody against Ha-Ras (C-20) (Santa Cruz Biotechnology, Inc.) and then with Horseradish Peroxidase-conjugated goat anti-rabbit immunoglobulin G. The ECL chemo-luminescent Western system (Amersham, Arlington Heights, Ill.) was used to detect secondary probes.

[3] = tested on: VEGF (vascular endothelial growth factor); experiment: Inhibition of VEGF expression (ELISA of culture supernatants); assay type: cell-based, human
Method: Cell Culture: Normal human epidermal keratinocytes (NHEK cells) were grown in KGM growth medium (Clonetics).
Both human estrogen responsive breast tumor (MCF-7) cells and human estrogen-independent breast tumor (MDA-MB-231) cells were grown in IMEM (Biofluids) supplemented with 10% FBS (Gibco-BRL) and 1:100 antibiotic-antimycotic (Gibco-BRL).
Cellular assays: NHEK cells were seeded at a density of ˜50,000 cells per well in 48-well plates in 0.5 ml of KGM growth medium (Clonetics) and incubated in humidified incubators at 37° C. The following day, the growth medium was replaced with fresh medium containing the PNA-DNA chimera alone or as mixture with Cellfectin, a cationic lipid uptake enhancer for nucleic acids (Life Technologies). Incubation of cells with the oligomer formulation was followed by a wash after 4 hours and cells were returned to fresh unsupplemented medium. Sixteen and/or 40 hr post-stimulation the culture supernatants were removed and used for ELISA, or saved at −80° C. for future analysis. To assay MCF-7 or MDA-MB-231 cells. MCF-7/MDA-MB-231 cells were seeded at a density of ˜100,000 cells per well plates in 0.5 ml of IMEM and incubated under standard conditions. […] VEGF protein levels in the supernatant were determined using a commercially available ELISA kit (R&D Systems).

[4] = tested on: DNA double strand (homopurine motif); experiment: Binding as triplex-forming oligonucleotide to double-stranded DNA
[5] = Stability of the oligomer in medium containing cells; assay type: in vitro ADME
Method: Vero cells are incubated in DMEM, 5% FCS, in 96-well microtiter plates at 37° C. for 24 hours. After removal of the medium, the cells are washed twice with serum-free DMEM. The radioactively labeled oligomer (10^6 cpm) is diluted with unlabeled oligomer to a concentration of 10 μM in serum, and the cells are incubated at 37° C. therewith. 150 μl portions are removed after 1, 7 and 24 hours (called “supernatant 1”). The cells in the wells of the microtiter plates are washed 7 times with 300 μl of fresh medium, and the combined washing media (called “supernatant 2”) are measured in a scintillation counter. Then 100 μl of trypsin solution are added, 30 seconds are allowed to elapse, and the supernatant is aspirated off. The cells are detached from the plate by incubating at 37° C. for 3 min. The detached cells are transferred into 1.5 ml Eppendorf tubes and centrifuged at 2,000 rpm for 6 minutes (“supernatant 3”). Supernatants 1 (5 μl), 2 and […] (0.5 ml) are each measured separately in a scintillation counter. From this is calculated the uptake of oligomer in pmol per 100,000 cells, with supernatant 3 representing the cell-bound oligomer fraction and the total of supernatants 1 and 2 representing the non-cell-bound oligomer fraction.
Supernatant 1 (10 μl) is mixed with 5 μl of 80% formamide (with Xylenecyanol and bromphenolblue), heated to 95° C. […]

[6] = molecular target: DNA polymerase (Klenow fragment) (Escherichia coli, UniProt P00582); experiment: DNA polymerase reaction (primer function); assay type: biochemical; conditions: 22° C. and 37° C., 10% polyacrylamide gel
Sequence of DNA polymerase (Klenow fragment) (P00582 324-928): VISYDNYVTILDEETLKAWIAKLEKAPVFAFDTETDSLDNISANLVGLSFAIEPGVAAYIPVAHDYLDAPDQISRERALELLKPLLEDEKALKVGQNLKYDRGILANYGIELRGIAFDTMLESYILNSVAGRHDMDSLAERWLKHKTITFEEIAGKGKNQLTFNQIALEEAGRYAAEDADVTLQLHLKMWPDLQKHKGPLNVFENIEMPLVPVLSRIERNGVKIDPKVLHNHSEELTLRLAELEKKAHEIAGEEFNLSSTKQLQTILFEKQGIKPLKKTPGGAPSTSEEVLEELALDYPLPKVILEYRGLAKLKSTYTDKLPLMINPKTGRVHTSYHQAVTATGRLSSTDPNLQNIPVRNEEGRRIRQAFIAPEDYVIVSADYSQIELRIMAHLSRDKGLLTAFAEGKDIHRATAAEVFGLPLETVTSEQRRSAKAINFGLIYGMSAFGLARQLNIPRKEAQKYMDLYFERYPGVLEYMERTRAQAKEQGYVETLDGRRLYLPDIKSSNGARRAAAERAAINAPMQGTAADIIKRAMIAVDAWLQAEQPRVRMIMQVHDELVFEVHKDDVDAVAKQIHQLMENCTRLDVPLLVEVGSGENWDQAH
Text: The following 81-mer oligodeoxynucleotide is used as template for the DNA polymerase reaction: • 5′-GCCCCAGGGAGAAGGCAACTGGACCGAAGGCGCTTGTGGAGAAGGAGTTCATAGCTGGGCTCCCTATAGTGAGTCGTATTA-3′(SEQ ID NO:50)
The sequence of the PNA/DNA primer is: • H-taa tac gac tca cta (5NH-T)-OH 3′(SEQ ID NO:62).
A corresponding oligodeoxynucleotide of the sequence 5′-TAA TAC GAC TCA CTA TAG-3′ (SEQ ID NO:51) is used as control primer.
The primer (0.15 nmol) and the template (0.15 nmol) in 5 μl of 10×PCR buffer ([…], 100 mM tris-HCl, pH 9, 1% Triton X-100, 15 MM MgCl2) are diluted with 35 μl of water and hybridized by heating to 95° C. and cooling. Then 10 μl of 2 mM dNTP mixture (nucleoside 5′-triphosphates) and 3 μl of DNA polymerase (Klenow fragment) are added, and the mixture is incubated at 22° C. and 37° C. for 0.5 hour each. The reaction solution is then analyzed on a 10% polyacrylamide gel (with 1% bis). pBR322/HaeIII digestion is loaded as marker. […] In both cases the double strand migrates […] than the template single strand in the gel electrophoresis.

c-Fos protein expression = experiment: Inhibition of c-Fos protein expression in the rat (spinal cord superfusion); assay type: in vivo, Sprague-Dawley rat; conditions: 75 μM, 6 hours, heat stimulation
Text: The determination takes place as described (Sandkühler et al. (1991) in: Proceedings of the VIth World Congress on Pain, Charlton and Woolf, Editors; Elsevier, Amsterdam; pages 313-318) by superfusion of the spinal cord. After laminectomy of a barbiturate-anesthetized Sprague-Dawley rat, a two-chamber container is formed from silicone to receive the antisense oligomer. One chamber is filled with the antisense PNA/DNA derivative, while the other chamber is filled with the control oligomer (concentration of each 75 μM). The superfusate is exchanged in each case after one hour. After superfusion for 6 hours, c-fos expression is stimulated by heat treatment (52° C.) of the rear legs.

COS cells = experiment: Cellular uptake by fluorescence labeling (fluorescence microscopy); assay type: cell-based; conditions: 0.1 mM oligomer
Method: COS cells are allowed to grow to confluence in Dulbecco's MEM supplemented with 10% FCS in 5 cm Petri dishes. The cells are washed twice with serum-free DMEM. A sterile needle is used to scratch an area of about 1 cm^2 in the middle of the Petri dish. The PNA/DNA oligomer solution (0.1 mM) to be investigated is applied to this area. Incubation is carried out at 37° C. under a CO2 atmosphere. The cells are investigated by fluorescence microscopy after 2, 4 and 16 hours. For this, the cells are washed four times with serum-free DMEM, covered with a glass slide and assessed under a fluorescence microscope or by phase contrast. A fluorescence-labeled PNA (without DNA part) F-(but)-tttt ttt-hex was investigated as comparison for the PNA/DNA hybrid molecules. After the cells had been incubated with this PNA for two hours, >90% of the cells show signs of pronounced morphological changes and cell death. […] The plasma membrane, the cytosol and the nucleus show no uptake of PNA. […] The situation is different with the DNA/PNA oligomers according to the invention. After incubation of the cells with the DNA/PNA oligomers for only two hours the cells show punctiform intracellular distribution of the PNA/DNA oligomers. The cells suffer no cell death even after prolonged incubation.

[7] = molecular target: RNase L (cellular endoribonuclease L) (Homo sapiens, UniProt Q05823); conditions: HeLa cell extract, 37° C.
Sequence of RNase L (cellular endoribonuclease L) (Q05823 whole entry): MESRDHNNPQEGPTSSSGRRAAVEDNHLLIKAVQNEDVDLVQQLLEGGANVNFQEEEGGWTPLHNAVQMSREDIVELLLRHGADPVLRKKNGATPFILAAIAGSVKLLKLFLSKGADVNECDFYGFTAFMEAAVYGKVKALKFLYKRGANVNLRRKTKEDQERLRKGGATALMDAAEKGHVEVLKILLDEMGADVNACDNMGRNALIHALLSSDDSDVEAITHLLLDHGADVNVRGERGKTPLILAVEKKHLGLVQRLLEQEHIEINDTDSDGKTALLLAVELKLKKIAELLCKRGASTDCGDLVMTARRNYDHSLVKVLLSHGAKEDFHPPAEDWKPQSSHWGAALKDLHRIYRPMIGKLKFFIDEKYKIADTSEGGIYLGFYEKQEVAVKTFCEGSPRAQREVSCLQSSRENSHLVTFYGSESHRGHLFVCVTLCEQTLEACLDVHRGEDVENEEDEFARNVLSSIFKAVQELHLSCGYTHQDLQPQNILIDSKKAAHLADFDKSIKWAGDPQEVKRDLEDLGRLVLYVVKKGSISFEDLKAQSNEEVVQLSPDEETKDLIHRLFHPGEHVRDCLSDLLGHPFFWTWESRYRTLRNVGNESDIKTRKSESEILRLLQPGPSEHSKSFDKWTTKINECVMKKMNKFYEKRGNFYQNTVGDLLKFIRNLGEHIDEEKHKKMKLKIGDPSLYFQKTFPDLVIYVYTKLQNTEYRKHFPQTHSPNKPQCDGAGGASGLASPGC
Method: An HeLa cell extract was prepared in order to stimulate the activity of cellular endoribonuclease L by the 2′,5′-tetraadenylate-PNA/DNA conjugates.
For investigation of this extract for endonuclease L, initially 0.3 OD of the RNA target sequence is heated with the particular PNA/DNA oligomers at 80° C. for 5 minutes and subsequently cooled to 37° C. for the hybridization. The duplex is mixed with 20 μl of the extract, 1.2 μl of glycerol and RNase L buffer and incubated at 37° C. The total volume is then 70 μl. For the kinetic investigations, samples are removed by pipette at the times of 0, 20 and 60 minutes and heated at 95° C. for 5 minutes to denature the enzymes. The samples are lyophilized in a Speedvac and analyzed by gel electrophoresis.

[8] = antiparallel, 3′-TAG CAG CAT AAT CAG-5′
[9] = parallel, 5′-TAG CAG CAT AAT CAG-3′

For “5′-ACA TCA TGG TCG-3′ [5′-ACA TCA TGG TCG-3′ DNA] (ACATCATGGTCG; unmodified DNA) [natural DNA oligonucleotide, reference compound]”, the “TM with DNA” value (complementary DNA; ap, 3′-TGT AGT ACC AGC-5′) was 50.7° ° C and the “TM with RNA (T = U)” value [1] was 48.6° ° C.
In the case of “5′-ACA TCA TGG TCG-3′ [5′-ACA TCA TGG TCG-3′ S-DNA] (dA*dC*dA*dT*dC*dA*dT*dG*dG*dT*dC*dG) [reference compound]”, the “TM with DNA” value (complementary DNA; ap, 3′-TGT AGT ACC AGC-5′) is reported as 46.7° ° C and the “TM with RNA (T = U)” value [1] is reported as 43.8° ° C.
With “5′-ASTSGS-(Oeg(a))-cgg aata-hex [Example 53]” the “inhibition of ha-ras expression (control oligonucleotides)” value [2] was “did not inhibit”.
With “5′-ATC GTC GTA TT-(Oeg(t))-agtc-hex [Example 18]” the “TM with DNA” value (complementary DNA; [8]) was “TM = 51.5 °C” and the “TM with DNA” value (complementary DNA; [9]) was “TM < 20 °C”.
With “5′-ATC GTC GTA TT-(but)-agtc-hex [Example 17]” the “TM with DNA” value (complementary DNA; [8]) was “TM = 51.0 °C” and the “TM with DNA” value (complementary DNA; [9]) was “TM < 20 °C”.
With “5′-ATC GTC GTA TTA GTC-3′ (ATCGTCGTATTAGTC; DNA, backbone not given here) [natural DNA oligonucleotide (DNA · DNA duplex), reference compound]” the “TM with DNA” value (complementary DNA; [8]) was “TM = 50.5 °C”.
With “5′-ATG-(Oeg(a))-cgg aata-hex [Example 52]” the “inhibition of ha-ras expression (control oligonucleotides)” value [2] was “did not inhibit”.
In the case of “5′-CSUSGAUSAG-(Oeg(a))-catccatg-hex [Example 54]”, the “highest inhibition of VEGF expression” value ([3]; 1 μM, presence of Cellfectin (10 μg/ml)) is reported as 43% and the “inhibition of VEGF expression” value ([3]; 0.1 to 0.4 μM, absence of Cellfectin) is reported as 10-18%.
For “5′-GG GGG GGG (Oeg(t)) ttt ttt ttt-hex [Example 39]”, the “binding as triplex-forming oligonucleotide to DNA double strand” value [4] was “high affinity”.
For “5′-GGG GGG GGG (but) ttt ttt-hex [Example 28]”, the “binding as triplex-forming oligonucleotide to DNA double strand” value [4] was “high affinity”.
For “5′-TSASTS-(Oeg(t))-ccgtcat-hex [Example 51]”, the “inhibition of ha-ras protein expression” value ([2]; 1 μM, in the presence of lipofectin) was “almost complete inhibition”.
In the case of “5′-TTT TTT TTT (but) ttt ttt-hex [Example 26]”, the stable oligomer ([5]; after an incubation time of 24 hours in medium containing cells) is reported as 69%.
For “(5′)-(Acetyl)-taa tac gac tca cta (eae(t) A-3′ [Example 65]”, the “DNA polymerase reaction product with primer on 81-mer template (gel)” value [6] was “dNTP are polymerized”.
With “A CAT CA (Oeg(t)) ggt cg-hex [Example 31]” the half-life ([5]; medium containing cells) was 32 h and the “inhibition of c-fos expression compared with corresponding DNA oligonucleotide and PNA oligomer” value (c-Fos protein expression) was “greater inhibition”.
For F-(but)-tttt ttt-hex, the “cell death on further/prolonged incubation” value (COS cells; a further two hours or prolonged incubation) was “all the cells have died”, the “cells showing pronounced morphological changes and cell death” value (COS cells; incubated two hours) was greater than 90% and the “intracellular uptake (fluorescence microscopy)” value (COS cells; two hours) was “no uptake”.
In the case of “PS-rA(2′5′)rA(2′5′)rA(2′5′)rA-spacer-(Oeg(t)tc ctc ctg cgg-hex [Example 37]”, the “stimulation of RNase L” value [7] is reported as “stimulates RNase L”.
With “taa tac gac tca cta (5′HN-T) (TAATACGACTCACTA; listed as DNA, chemistry not fully specified) [Example 36, 15 PNA units and one nucleoside unit, primer for DNA polymerase]” the “DNA polymerase reaction product with primer on 81-mer template (gel)” value [6] was “migrates somewhat more quickly”.
